Starred links: 1 amine or outer side, 2 acyl side, 3 side chain; linkers in the order of their positions; H or OH if unused. Non-standard residues stand in square brackets, D forms with d. Residues, ends and D or L forms follow the SMILES beside them. ξ: configuration not given here. *: point of attachment. ξ3Amino2oxobutanoyl = CC(N[*:1])C(=O)C(=O)[*:2]; NHBn = c1ccc(CN*)cc1; ξNva = CCCC(N)C(=O)O; CF3 = FC(F)(F)*

T2 sequence (P00772 27-266): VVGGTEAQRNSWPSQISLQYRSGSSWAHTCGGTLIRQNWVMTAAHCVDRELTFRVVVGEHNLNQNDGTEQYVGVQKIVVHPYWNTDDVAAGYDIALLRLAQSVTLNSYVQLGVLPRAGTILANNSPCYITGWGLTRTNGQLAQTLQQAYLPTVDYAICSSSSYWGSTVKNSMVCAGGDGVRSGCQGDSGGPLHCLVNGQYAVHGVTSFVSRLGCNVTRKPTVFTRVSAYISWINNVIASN

One assay deals with T1, HCMV No protease (Human cytomegalovirus, UniProt P16753).
T1 construct: at a position located near the center of the precursor (R-site) to excise the catalytic domain (No)
T1 sequence (P16753 1-256): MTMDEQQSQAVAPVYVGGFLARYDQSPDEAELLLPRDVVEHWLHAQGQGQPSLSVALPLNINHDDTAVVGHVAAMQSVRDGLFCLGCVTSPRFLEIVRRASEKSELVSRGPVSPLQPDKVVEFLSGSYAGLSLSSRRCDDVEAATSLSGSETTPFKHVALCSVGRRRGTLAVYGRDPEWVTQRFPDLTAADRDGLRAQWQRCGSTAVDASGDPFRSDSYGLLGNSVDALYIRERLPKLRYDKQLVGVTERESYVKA
Nature of the assay: biochemical.
Conditions: not given
The protocol: HCMV No protease assay: HCMV No protease was assayed with an internally quenched fluorogenic substrate based on the maturation cleavage site (Abz-[…](3-NO2)R-OH, kcat /KM =260 M^-1 s^-1) . […] A protocol adaptable to a 96-well plate format was designed for the determination of IC50 values of inhibitors. […] After this period, enzymatic hydrolysis was initiated by addition of the fluorogenic substrate and the reaction was performed for 2 hr at 30° C. […] No quenching was required before fluorescence measurement since the total scanning time by the plate reader accessory was brief relative to the duration of the reaction. The incubation buffer (essentially similar to the pre-incubation buffer) contained 50 mM Tris/HCl pH 8, 0.5M Na2 SO4, 50 mM NaCl, 0.1 mM EDTA, 1 mM TCEP, 3% v/v DMSO and 0.05% w/v Casein. The final concentrations of HCMV N, protease (expressed in terms of total monomer concentration) and substrate were 100 nM and 5 μM respectively. IC50 values were obtained through fitting of the inhibition curve to a competitive inhibition model using SAS NLIN procedure. The mode of inhibition was determined by measurements of the initial rates (in cuvettes) at various substrate (Abz-Tbg-Tbg-Asn(Me)2 -Ala-SSRLY(3-NO2)R-OH) and inhibitor concentrations using the same conditions as above.
In turn, `CC(NC(=O)[C@H](CC(=O)N(C)C)NC(=O)[C@@H](NC(=O)CC(C)(C)C)C(C)(C)C)P(=O)(Oc1ccccc1)Oc1ccccc1` (stereo partly drawn) [Compound 79, Diphenyl N4 ,N4-dimethyl-N1-(1-aminoethylphosphinate)-(2S)-2-{[(1S)-2,2-dirmethyl-1-(neopentylcarboxamido)propyl]carboxamido}butanediamide] showed an IC50 of 0.66 ± 0.06 µM.

The assay is the same for the next values; noted with them: IC50 (μM).
On to `CC(=O)N[C@@H](CO)C(=O)N[C@@H](Cc1ccc(O)cc1)C(=O)N[C@H](C(=O)N[C@@H](CCCCN)C(=O)NC(C)C(=O)C(=O)NCc1ccccc1)C(C)C` (stereo partly drawn) [Compound 218, Ac-Ser-Tyr-Val-Lys-Ala(d,l)-C(O)-NH-CH2 -Ph] (Ac-SYVK[ξ3Amino2oxobutanoyl]-NHBn), for which the IC50 turned out to be 9.4 µM.

Still in this assay, the particulars now being: inhibitor pre-incubated 5 hr at 30° C. with enzyme, fluorogenic substrate; read-out: IC50.
In the case of `CCCC(NC(=O)[C@H](CC(N)=O)NC(=O)[C@@H](NC(=O)[C@@H](NC(C)=O)C(C)C)C(C)C)C(=O)C(F)(F)F` (stereo partly shown) [Compound 45] (Ac-VVN[ξNva]-CF3), the IC50 was over 300 µM.
For the compound `C[C@H](NC(=O)[C@H](CC(=O)N1CCCC1)NC(=O)[C@@H](NC(=O)CC(C)(C)C)C(C)(C)C)C(=O)c1nc2ccccc2o1` [Compound 304], the IC50 turned out to be 0.5 µM.
Same read-out and setting: the figure for `CC[C@@H](NC(=O)C(=O)C(C)NC(=O)[C@H](CC(=O)N(C)CCc1ccccn1)NC(=O)[C@@H](NC(=O)CC(C)(C)C)C(C)(C)C)c1ccccc1` (stereo partly shown) [Compound 309] is 0.12 µM.
For `CC(NC(=O)[C@H](CC(=O)N(C)C)NC(=O)[C@@H](NC(=O)CC(C)(C)C)C(C)(C)C)C(=O)C(=O)NC[C@@H](C)c1ccccc1` (stereo partly shown) [Compound 408], the IC50 is 0.2 µM.
Same read-out and setting: the figure for `CC(NC(=O)[C@H](CC(=O)N(C)C)NC(=O)[C@@H](NC(=O)[C@@H](N)C(C)C)C(C)C)C(=O)C(=O)NCc1ccc(C(F)(F)F)cc1` (stereo partly shown) [Compound 404] is 1.7 µM; for `CC(NC(=O)[C@H](CC(=O)N(C)C)NC(=O)[C@@H](NC(=O)CC(C)(C)C)C(C)(C)C)C(=O)C(=O)NCc1ccc(C(=O)N2CCOCC2)cc1` (stereo partly shown) [Compound 405] it is 0.5 µM.
The same measure, in the same setting: to `CC(NC(=O)[C@@H](CC(=O)C(NC(=O)CC(C)(C)C)C(C)(C)C)CC(=O)N(C)C)C(=O)C(F)(F)C(F)(F)F` (mixture of isomers) [Compound 312, N^4,N^4 -Dimethyl-N^1-[1-(R/ S)-methyl-2-oxo-3,3,4,4,4-pentafluorobutyl]-(2S)-2-{3-[(3,3-dimethyl-1-oxobutyl)-amino]-4,4-dimethyl-2-oxopentyl}-butanediamide] belongs 5.8 µM; to `CC(NC(=O)[C@H](CC(=O)N1CCCC1)NC(=O)[C@@H](NC(=O)CC(C)(C)C)C(C)(C)C)C(=O)C(=O)NCCOCc1ccccc1` (stereo partly shown) [Compound 305], 0.3 µM; to `CC(NC(=O)[C@@H](CC(=O)[C@@H](NC(=O)CC(C)(C)C)C(C)(C)C)CC(=O)C(C)(C)C)C(=O)C(F)(F)F` (stereo partly shown) [Compound 311], 6.8 µM.
Regarding `Cc1ccc(NC(=O)C(=O)C(C)NC(=O)[C@H](CC(=O)N(C)C)NC(=O)[C@@H](NC(=O)[C@@H](NC(=O)OC(C)(C)C)C(C)C)C(C)C)cc1` (stereo partly shown) [Compound 409], the IC50 turned out to be 1.4 µM.
Same read-out and setting: to `CC(NC(=O)[C@H](CC(=O)N(C)C)NC(=O)[C@@H](NC(=O)[C@@H](NC(=O)OC(C)(C)C)C(C)C)C(C)C)C(=O)C(=O)Nc1cccc(C(N)=O)c1` (stereo partly shown) [Compound 414] belongs 1.6 µM; to `CC[C@@H](NC(=O)C(=O)C(C)NC(=O)[C@H](CS(N)(=O)=O)NC(=O)[C@@H](NC(=O)CC(C)(C)C)C(C)(C)C)c1ccccc1` (stereo partly shown) [Compound 310], 0.97 µM; to `CC(NC(=O)[C@H](CC(=O)N(C)C)NC(=O)[C@@H](NC(=O)[C@@H](NC(=O)OC(C)(C)C)C(C)C)C(C)C)C(=O)C(=O)NC1CCCCC1` (stereo partly shown) [Compound 411], 1.8 µM.
On the same count and under the same terms, to `Cc1ccc2nc(C(=O)C(C)NC(=O)[C@H](CC(=O)N(C)C)NC(=O)[C@@H](NC(=O)CC(C)(C)C)C(C)(C)C)oc2c1` (stereo partly drawn) [Compound 82, N4,N4-dimethyl-N1-[1-methyl-2-(6-methyl-1,3-benzoxazol-2-yl)-2-oxoethyl]-(2S)-2-{[(1S)-2,2-dimethyl-1-(neopentylcarboxamido)propyl]carboxamido}butanediamide] belongs 0.6 ± 0.1 µM; to `CC(NC(=O)[C@H](CC(=O)N1CCCC1)NC(=O)[C@@H](NC(=O)CC(C)(C)C)C(C)(C)C)C(=O)C(=O)NCc1ccc(I)cc1` (stereo partly shown) [Compound 98], 0.34 µM.
The same measure, in the same setting: the figure for `CC(NC(=O)[C@H](CC(=O)N1CCOCC1)NC(=O)[C@@H](NC(=O)CC(C)(C)C)C(C)(C)C)C(=O)C(F)(F)C(F)(F)F` (stereo partly shown) [Compound 308] is 0.3 µM; for `CC(NC(=O)[C@H](CC(=O)N(C)C)NC(=O)[C@@H](NC(=O)[C@@H](NC(=O)OC(C)(C)C)C(C)C)C(C)C)C(=O)C(=O)NCC1CCCCC1` (stereo partly shown) [Compound 413] it is 4.4 µM; for `C=CCOC(=O)OCCNC(=O)C(=O)C(C)NC(=O)[C@H](CC(=O)N(C)C)NC(=O)[C@@H](NC(=O)CC(C)(C)C)C(C)(C)C` (stereo partly shown) [Compound 401] it is 0.59 µM.
For the compound `CC[C@@H](NC(=O)C(=O)C(C)NC(=O)[C@H](CC(=O)N(C)C)NC(=O)[C@@H](NC(=O)[C@@H](NC(=O)CCCCCNC(=O)OC(C)(C)C)C(C)(C)C)C(C)(C)C)c1ccccc1` (stereo partly shown) [Compound 96], the IC50 is 0.057 µM.
The same measure, in the same setting: to `CC[C@@H](NC(=O)C(=O)C(C)NC(=O)[C@H](CC(=O)N(C)C)NC(=O)[C@@H](NC(=O)[C@@H](NC(=O)CCCCCN)C(C)(C)C)C(C)(C)C)c1ccccc1` (stereo partly shown) [Compound 97] belongs 0.073 µM; to `CC(NC(=O)[C@H](CC(=O)NC(C)(C)C)NC(=O)[C@@H](NC(=O)CC(C)(C)C)C(C)(C)C)C(=O)C(F)(F)C(F)(F)F` (stereo partly shown) [Compound 306], 0.5 µM; to `CC(NC(=O)[C@H](CC(=O)N(C)C)NC(=O)[C@@H](NC(=O)CC(C)(C)C)C(C)(C)C)C(=O)C(=O)N[C@H](C)c1cccc2ccccc12` (stereo partly shown) [Compound 407], 0.2 µM.
Still for that read-out and setting: to `CC(NC(=O)[C@H](CC(=O)N(C)C)NC(=O)[C@@H](NC(=O)[C@@H](NC(=O)OC(C)(C)C)C(C)C)C(C)C)C(=O)C(=O)NCC(C)(C)C` (stereo partly shown) [Compound 402] belongs 4.3 µM; to `CC(NC(=O)[C@H](CC(=O)N(C)C)NC(=O)[C@@H](NC(=O)[C@@H](NC(=O)OC(C)(C)C)C(C)C)C(C)C)C(=O)C(=O)NCCc1ccccc1` (stereo partly shown) [Compound 412], 0.85 µM.
On the same count and under the same terms, to `CC(NC(=O)[C@H](CCC(=O)N(C)C)NC(=O)[C@@H](NC(=O)CC(C)(C)C)C(C)(C)C)C(=O)C(F)(F)C(F)(F)F` (stereo partly shown) [Compound 307] belongs 2 µM.
In the case of `CCCCC[C@@H](C)NC(=O)C(=O)C(C)NC(=O)[C@H](CC(=O)N(C)C)NC(=O)[C@@H](NC(=O)CC(C)(C)C)C(C)(C)C` (stereo partly shown) [Compound 406], the IC50 is 0.8 µM.
The same measure, in the same setting: to `CC(NC(=O)[C@H](CC(=O)N(C)C)NC(=O)[C@@H](NC(=O)[C@@H](NC(=O)OC(C)(C)C)C(C)C)C(C)C)C(=O)C(=O)Nc1ccccc1` (stereo partly shown) [Compound 410] belongs 1.5 µM.

The assay is the same for the next values; noted with them: relative to compound 96.
As to `CC[C@@H](NC(=O)C(=O)C(C)NC(=O)[C@H](CC(=O)N(C)C)NC(=O)[C@@H](NC(=O)[C@@H](NC(=O)CCCCCN)C(C)(C)C)C(C)(C)C)c1ccccc1` (stereo partly shown) [Compound 97], the “improvement of potency (factor) on removal of the Boc group” value is 2.

The assay is the same for the next values; noted with them: text of b731; read-out: IC50 value / potency.
As to `CC[C@@H](NC(=O)C(=O)C(C)NC(=O)[C@H](CC(=O)N(C)C)NC(=O)[C@@H](NC(=O)[C@@H](NC(=O)CCCCCNC(=O)OC(C)(C)C)C(C)(C)C)C(C)(C)C)c1ccccc1` (stereo partly shown) [Compound 96], the IC50 amounted to 0.075 µM.
`CC[C@@H](NC(=O)C(=O)C(C)NC(=O)[C@H](CC(=O)N(C)C)NC(=O)[C@@H](NC(=O)[C@@H](NC(=O)CCCCCN)C(C)(C)C)C(C)(C)C)c1ccccc1` (stereo partly shown) [Compound 97]: the IC50 was under 0.04 µM.

Another assay addresses T2, porcine pancreatic elastase (PPE) (Sus scrofa, UniProt P00772).
T2 construct: porcine pancreas elastase #1027891 lot 83260521-23; purchased Boehringer Mannheim #1027891
Briefly: Specificity assay, porcine pancreatic elastase. It is filed as biochemical.
Conditions: not given
Here is the method: The specificity of the compounds was determined against a variety of serine proteases (Human leukocyte and porcine pancreatic elastases (HLE & PPE), bovine pancreas α-chymotrypsin) and one cysteine protease (Human liver cathepsin B). In all cases a 96-well plate format protocol using a calorimetric p-nitroanilide (pNA) substrate specific for each enzyme was used. Each assay included a 1 hr pre-incubation enzyme-inhibitor at 30° C. followed by addition of substrate and hydrolysis to ≈30% conversion as measured by scanning on a UV Thermomax microplate reader. Substrate concentrations were kept as low as possible compared to KM to reduce substrate competition. […] The final conditions for each assay were as followed: 50 mM Tris/HCl pH 8, 0.5 M Na2 SO4, 50 mM NaCl, 0.1 mM EDTA, 3% DMSO, 0.01% Tween-20 with [100 μM Succ-AAPF-pNA and 250 pM α-chymotrypsin], [133 μM Succ-AAA-pNA and 8 nM porcine elastase], or [133 μM Succ-AAV-pNA and 8 nM leukocyte elastase]. 100 mM NaH2 PO4 pH 6, 0.1 mM EDTA, 3% DMSO, 1 mM TCEP, 0.01% Tween-20, 30 μM Z-FR-pNA and 5 nM cathepsin B (the stock enzyme was activated in buffer containing 20 mM TCEP before use).
For the compound `CC(NC(=O)[C@H](CC(=O)N(C)C)NC(=O)[C@@H](NC(=O)CC(C)(C)C)C(C)(C)C)C(=O)c1nc2ccccc2o1` (stereo partly drawn) [Compound 77, N1-[2-(1,3-benzoxazol-2-yl)-1-methyl-2-oxoethyl]-N4,N4-dimethyl-(2S)-2-{[(1S)-2,2-dimethyl-1-(neopentylcarboxamido)propyl]carboxamido}butanediamide], the “potency against PPE relative to HCMV protease” value is listed as “seven fold more potent against PPE than against HCMV protease”.

Still in this assay, the particulars now being: 1 hr pre-incubation at 30° C., Succ-AAA-pNA; read-out: IC50 against PPE.
Regarding `CC(NC(=O)[C@H](CC(=O)N(C)C)NC(=O)[C@@H](NC(=O)CC(C)(C)C)C(C)(C)C)C(=O)c1nc2ccccc2s1` (stereo partly drawn) [Compound 80, N1-[2-(1,3-benzothiazol-2-yl)-1-methyl-2-oxoethyl]-N4,N4-dimethyl-(2S)-2-{[(1S)-2,2-di-methyl-1-(neopentylcarboxamido)propyl]carboxamido}butanediamide], the IC50 is 9 µM.

The values are drawn from patent US6291640A, “Peptidomimetic inhibitors of the human cytomegalovirus protease” (Boehringer Ingelheim Ltd., priority 1998, dated 2001).
